Data reported in patent US6592890B1, “Conveyance of anti-infective activity to wound dressings” (OxiBio, Inc., priority 1999, dated 2003).

Test system: C. albicans

**Q.** For `II` [elemental iodine], which “elemental iodine concentrations required to affect microbial killing” value is on record?
**A.** < 0.01%
